Columns and labels:
[1] = tested on: SFTSV; assay: microbe, parasite or virus in culture; type: cell-based; settings: Severe fever with thrombocytopenia syndrome virus, Vero
[2] = in vitro; settings: human
[3] = in vitro; settings: African green monkey
[4] = tested on: SFTSV; assay: microbe, parasite or virus in culture; type: cell-based, Severe fever with thrombocytopenia syndrome virus; settings: for IC50: Severe fever with thrombocytopenia syndrome virus, HUVEC
[5] = tested on: SFTSV mini-genome; type: cell-based, Severe fever with thrombocytopenia syndrome virus
[6] = tested on: SFTSV; type: cell-based, Severe fever with thrombocytopenia syndrome virus
[7] = tested on: HUVEC cells; settings: human
[8] = tested on: SARS-CoV-2; assay: microbe, parasite or virus in culture; type: cell-based; settings: Severe acute respiratory syndrome coronavirus 2, Vero C1008
[9] = tested on: SFTSV; set-up: species or system C57BL/6 mice; settings: mouse, in vivo, ip, 4 mg/kg/day
[10] = tested on: SARS-CoV-2; type: cell-based
[11] = tested on: SFTSV; type: cell-based, Severe fever with thrombocytopenia syndrome virus; remark: listed apart in the source
[12] = tested on: SFTSV; type: cell-based, Severe fever with thrombocytopenia syndrome virus; remark: listed apart in the source
[13] = tested on: Rift Valley fever virus (RVFV); assay: microbe, parasite or virus in culture; type: cell-based; settings: HUVEC
[14] = tested on: SFTSV; type: cell-based, Severe fever with thrombocytopenia syndrome virus; remark: listed apart in the source
[15] = tested on: Rift Valley fever virus (RVFV); type: cell-based
[16] = tested on: SFTSV; settings: mouse, in vivo, ip, 1 mg/kg/day
[17] = tested on: SFTSV; type: cell-based, Severe fever with thrombocytopenia syndrome virus; remark: listed apart in the source
[18] = tested on: SFTSV; type: cell-based, Severe fever with thrombocytopenia syndrome virus; remark: listed apart in the source

CC(C)=CCCC(C)(O)C1CCC2(C)C1C(O)CC1C3(C)CCC(OC4OC(CO)C(O)C(O)C4OC4OC(CO)C(O)C(O)C4OC4OCC(O)C(O)C4O)C(C)(C)C3CCC12C (stereo not shown) [Notoginsenoside Ft1, notoginsenoside Ft1]
IC50 [1]: 3.5 µM
CC50 [2]: ~62.5 µM
CC50 [3]: > 250 µM
IC50 [4]: 11 µM

CC(=O)O[C@@H]1C[C@H](O)[C@@]23CO[C@@H](O)[C@]1(C)[C@@H]2C[C@@H](O)[C@]1(C)[C@@H]3C(=O)[C@H](OC(C)=O)[C@@]2(C)[C@H](c3ccoc3)C[C@H]3O[C@]321 [Toosendanin, toosendanin]
IC50 [1]: 1.2 µM
viral RNA replication and transcription (mini-genome) [5]: did not affect the viral RNA replication and transcription
accumulation of vRNA (internalization), concentration series [6]: dose dependent inhibition effect on accumulation of vRNA
relative intracellular vRNA (internalization) [6]: significantly reduced
CC50 [7]: > 450 µM
IC50 [8]: 0.24 µM
inhibition at 0.21 µM [8]: 42%
inhibition at 0.62 µM [8]: 84.6%
inhibition at 1.85 µM [8]: 92.4%
inhibition at 5.6 µM [8]: 99%
inhibition at 16.7 µM [8]: 99.5%
inhibition at 50 µM [8]: 99.9%
antigen of SFTSV nucleoprotein in spleen sections [9]: reduced the antigen of SFTSV nucleoprotein in the spleen sections
viral load in the serum [9]: significantly lower than that of the mice in the vehicle control group
time-of-addition result, SARS-CoV-2 [10]: revealed inhibitory effect when added 1 h post infection
vRNA and viral protein expression, time of addition [11]: decreased significantly when toosendanin was added prior to but not post SFTSV infection
CC50 [2]: > 250 µM
syncytium formation (viral fusion) [12]: No significant difference of syncytium formation
IC50 [13]: 0.13 µM
inhibition at 0.6 µM [13]: 72.6%
inhibition at 1.8 µM [13]: 82%
inhibition at 5.6 µM [13]: 95.5%
inhibition at 16.7 µM [13]: 93.6%
inhibition at 50 µM [13]: 95.1%
SFTSV binding (vRNA level of bound virions) [14]: did not inhibit SFTSV binding
time-of-addition result, RVFV [15]: inhibited the entry step of RVFV
IC50 [4]: 0.052 µM
megakaryocytes accumulation in spleens (H&E) [16]: reduced the megakaryocytes accumulation
viral antigen in spleen sections (immunohistochemistry) [16]: less viral protein positive cells was detected
weight loss [16]: did not lead to weight loss
virucidal effect on SFTSV virions [17]: no virucidal effect
Number of particles [18]: 20
amount of internalized viral particles (microscopy) [18]: significantly reduced the amount of internalized viral particles

O=C1OC[C@H]2OC(O)[C@H](O)[C@@H](O)[C@@H]2OC(=O)c2cc(O)c(O)c(O)c2-c2c(O)c(O)c3oc(=O)c4c(c(O)c(O)c5oc(=O)c2c3c54)-c2c1cc(O)c(O)c2O (mixture of isomers) [Punicalin, punicalin]
IC50 [1]: 3.8 µM
CC50 [2]: > 250 µM
CC50 [3]: > 125 µM
SI [4]: > 100
IC50 [4]: 2.5 µM
virucidal effect on SFTSV virions [17]: directly inactivated virions in a dose dependent manner
